The numbers were not newly measured in patent US5965741A, “Ortho-substituted aromatic ether compounds and their use in pharmaceutical compositions for pain relief” (Zeneca Limited, priority 1994, dated 1999), which cites them from elsewhere.

The subject of this data set is EP1 receptors. Particulars: guinea pig ileum or dog fundus.

Consider `CC(=O)NNC(=O)N1Cc2ccccc2Oc2ccc(Cl)cc21` [SC-19220], for which the “block of the effect of PGE2” value is “blocks the effect of PGE2”.
